Reference: US7057012B1, “PTH functional domain conjugate peptides, derivatives thereof and novel tethered ligand-receptor molecules” (The General Hospital Corporation, priority 1998, dated 2006)

Key:
AC = details: cited from earlier work
the receptor = target: T1, the receptor (Homo sapiens, UniProt Q03431); details: cited from earlier work
T1 sequence (Q03431 27-593): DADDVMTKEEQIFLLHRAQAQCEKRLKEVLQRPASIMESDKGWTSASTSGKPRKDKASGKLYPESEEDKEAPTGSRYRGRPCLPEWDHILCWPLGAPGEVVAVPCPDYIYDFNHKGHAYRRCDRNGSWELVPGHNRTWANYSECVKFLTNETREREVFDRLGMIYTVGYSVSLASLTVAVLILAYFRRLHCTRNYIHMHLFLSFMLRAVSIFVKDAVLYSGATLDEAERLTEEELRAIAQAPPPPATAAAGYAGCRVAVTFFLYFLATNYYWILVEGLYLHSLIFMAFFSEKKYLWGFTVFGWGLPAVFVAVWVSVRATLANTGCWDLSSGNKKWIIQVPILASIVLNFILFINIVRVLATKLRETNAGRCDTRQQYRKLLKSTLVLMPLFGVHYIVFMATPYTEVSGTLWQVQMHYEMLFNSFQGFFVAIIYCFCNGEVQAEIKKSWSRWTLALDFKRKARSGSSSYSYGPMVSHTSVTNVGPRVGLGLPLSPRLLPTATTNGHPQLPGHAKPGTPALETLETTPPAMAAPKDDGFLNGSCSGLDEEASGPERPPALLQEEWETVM

rat PTH-1 receptor = target: T2, rat PTH-1 receptor (Rattus norvegicus, UniProt P25961); details: CHO cells expressing the cloned rat PTH-1 receptor; cited from earlier work
T2 construct: host or cells: CHO cells
T2 sequence (P25961 27-591): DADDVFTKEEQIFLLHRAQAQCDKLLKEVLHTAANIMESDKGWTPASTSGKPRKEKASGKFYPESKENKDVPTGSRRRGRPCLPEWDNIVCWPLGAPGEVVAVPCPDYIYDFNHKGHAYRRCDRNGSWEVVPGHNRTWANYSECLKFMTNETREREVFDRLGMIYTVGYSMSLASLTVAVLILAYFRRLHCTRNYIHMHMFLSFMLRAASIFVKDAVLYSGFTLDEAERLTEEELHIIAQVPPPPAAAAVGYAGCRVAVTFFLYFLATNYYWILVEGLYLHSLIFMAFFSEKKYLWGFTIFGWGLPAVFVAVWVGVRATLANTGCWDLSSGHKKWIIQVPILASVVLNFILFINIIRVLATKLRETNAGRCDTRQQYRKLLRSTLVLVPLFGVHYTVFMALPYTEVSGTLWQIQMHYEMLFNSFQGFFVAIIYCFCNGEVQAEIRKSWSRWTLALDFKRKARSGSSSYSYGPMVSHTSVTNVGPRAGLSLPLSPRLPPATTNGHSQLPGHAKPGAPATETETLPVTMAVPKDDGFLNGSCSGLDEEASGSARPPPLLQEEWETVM

hP1R-Tether constructs = test: Q-PTH(1–34) cAMP stimulation of the hP1R-Tether constructs and alanine mutants in COS-7 cells; format: cell-based, human
Method: (§1) Cell Culture: COS-7 cells were cultured at 37° C. in T-75 flasks ([…] in Dulbecco's modified Eagle's medium (DMEM) supplemented with fetal bovine serum (10%), penicillin G (20 units/ml), streptomycin sulfate (20 μg/ml) and amphotericin B (0.05 μg/ml) in a humidified atmosphere containing 5% CO2. Cells were sub-cultured in 24-well plates and, when confluent, were treated with fresh media and shifted to 33° C. for 12 to 24 h prior to the assay (Bergwitz, C., et al., J. Biol. Chem. 272:28861–28868 (1997); Abell, A., et al., J. Biol. Chem. 271:4518–4527 (1996)).
(§2) PTH Receptor mutagenesis and COS-7 cell expression: The pcDNA-1-based plasmid encoding the intact HPTH-1 receptor (HK-WT in reference (Schipani, E., et al., Endocrinol. 132:2157–2165 (1993)) and herein called hP1R-WT) was used for studies in COS-7 cells. The truncated human PTH-1 receptor (hP1R-de1Nt) (FIG. 18) was constructed from the HK-WT plasmid by oligonucleotide-directed mutagenesis (Kunkel, T. A., Proc. Natl. Acad. Sci. USA 82:488–492 (1985)). […]
(§3) cAMP Stimulation: Stimulation of cells with peptide analogs was performed in 24-well plates. […] The cAMP content of the diluted lysate was determined by radioimmunoassay.

hP1R-[R^11]-Tether(1–11) = target: T3, hP1R-[R^11]-Tether(1–11) (Homo sapiens, UniProt Q03431); test: Q-PTH(1–34) cAMP dose-response, COS-7 cells expressing hP1R-[R11]-Tether(1–11); format: cell-based
T3 construct: expressed in transfected cells; host or cells: COS-7 cells, transient, DEAE-dextran
T3 sequence (Q03431 with tags, fused parts or gaps): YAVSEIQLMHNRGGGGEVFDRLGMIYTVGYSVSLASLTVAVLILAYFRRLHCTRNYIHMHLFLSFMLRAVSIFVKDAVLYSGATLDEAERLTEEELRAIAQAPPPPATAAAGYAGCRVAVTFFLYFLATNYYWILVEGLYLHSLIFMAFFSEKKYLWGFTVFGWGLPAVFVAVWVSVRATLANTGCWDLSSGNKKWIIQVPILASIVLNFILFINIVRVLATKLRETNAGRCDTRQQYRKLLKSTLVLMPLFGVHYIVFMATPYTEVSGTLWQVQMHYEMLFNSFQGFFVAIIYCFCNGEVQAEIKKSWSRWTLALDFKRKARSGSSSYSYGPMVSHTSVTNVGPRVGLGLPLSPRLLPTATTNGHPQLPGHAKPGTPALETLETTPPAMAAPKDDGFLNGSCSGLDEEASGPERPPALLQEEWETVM
Method: as §1, §2, §3

hP1R-Tether(1–9) = target: T4, hP1R-Tether(1–9) (Homo sapiens, UniProt Q03431); test: Q-PTH(1–34) cAMP dose-response, COS-7 cells expressing hP1R-Tether(1–9); format: cell-based
T4 construct: expressed in transfected cells; host or cells: COS-7 cells, transient, DEAE-dextran
T4 sequence (Q03431 with tags, fused parts or gaps): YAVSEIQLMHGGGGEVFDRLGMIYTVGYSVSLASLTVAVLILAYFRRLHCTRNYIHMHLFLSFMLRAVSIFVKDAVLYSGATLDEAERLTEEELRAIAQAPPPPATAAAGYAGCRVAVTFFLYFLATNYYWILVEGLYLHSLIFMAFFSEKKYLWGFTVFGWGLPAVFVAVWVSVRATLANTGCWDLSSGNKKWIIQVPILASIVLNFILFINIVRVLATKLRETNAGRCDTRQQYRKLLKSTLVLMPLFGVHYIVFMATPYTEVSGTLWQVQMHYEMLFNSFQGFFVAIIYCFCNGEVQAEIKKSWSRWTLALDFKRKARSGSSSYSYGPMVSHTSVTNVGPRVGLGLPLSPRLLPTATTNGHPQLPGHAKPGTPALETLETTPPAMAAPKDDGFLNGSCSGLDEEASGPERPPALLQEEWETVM
Method: as §1, §2, §3

hP1r-de1NT = target: T5, hP1r-de1NT (Homo sapiens, UniProt Q03431); test: Q-PTH(1–34) cAMP dose-response, COS-7 cells expressing hP1R-delNT; format: cell-based
T5 construct: expressed in transfected cells; host or cells: COS-7 cells, transient, DEAE-dextran
T5 sequence (Q03431 with tags, fused parts or gaps): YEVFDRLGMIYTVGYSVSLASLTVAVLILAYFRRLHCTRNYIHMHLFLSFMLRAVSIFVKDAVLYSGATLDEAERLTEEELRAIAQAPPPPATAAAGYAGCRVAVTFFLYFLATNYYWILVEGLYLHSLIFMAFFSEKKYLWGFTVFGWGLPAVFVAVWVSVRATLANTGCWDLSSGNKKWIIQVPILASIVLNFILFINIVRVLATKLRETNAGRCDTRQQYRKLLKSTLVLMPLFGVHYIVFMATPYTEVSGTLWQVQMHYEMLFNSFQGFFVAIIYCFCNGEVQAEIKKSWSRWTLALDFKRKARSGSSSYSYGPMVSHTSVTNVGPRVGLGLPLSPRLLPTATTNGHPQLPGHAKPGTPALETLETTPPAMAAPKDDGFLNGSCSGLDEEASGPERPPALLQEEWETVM
Method: as §1, §2, §3

rat renal membranes = details: cited from earlier work

## PTH(15–34)
AC
  activation of AC: does not activate AC
The receptor
  binding to the receptor: binds weakly

## PTHrP(1–16) (AVSEHQLLHDKGKSIQ; Parathyroid hormone-related protein; UniProt P12272 37-52, looked up, fragment) [short NH2-terminal PTHrP peptide investigated previously]
Rat PTH-1 receptor
  activity in AC assays: inactive

## [Ala^1,3,10,12,Arg^11, Tyr^34]hPTH(1–34)NH2 [Q-PTH(1–34)]
hP1R-Tether constructs
  dose-response curves for the hP1R-Tether constructs relative to hP1R-de1NT: parallel and left-shifted
hP1R-Tether constructs; alanine scan mutants
  cAMP response of the alanine mutants of hP1R-[R11]-Tether(1–11) to exogenous ligand: responded well
hP1R-[R^11]-Tether(1–11)
  cAMP dose-response relative to the intact wildtype receptor: right-shifted response
  maximum cAMP response: capable of producing a maximum cAMP response
hP1R-Tether(1–9)
  cAMP dose-response relative to the intact wildtype receptor: right-shifted response
  maximum cAMP response: capable of producing a maximum cAMP response
hP1r-de1NT
  cAMP dose-response relative to the intact wildtype receptor: right-shifted response
  maximum cAMP response: capable of producing a maximum cAMP response

## bPTH(1–12) (AVSEIQFMHNLG; Parathyroid hormone; UniProt P01268 32-43, looked up, fragment) [short NH2-terminal PTH peptide investigated previously]
Rat renal membranes
  activity in adenylyl cyclase assays: inactive
